Experimental data published in ChEMBL document CHEMBL4308841, “Synthesis, in vitro antiproliferative activity, and kinase inhibitory effects of pyrazole-containing diarylureas and diarylamides” (Eur J Med Chem, 2018).

Key:
RXF 393 [1] = assay: Growth inhibition of human RXF393 cells incubated for 48 hrs by sulforhodamine B assay; format: functional, cell-based; conditions: RXF 393, 48 h
HCT-15 = assay: Growth inhibition of human HCT15 cells assessed as cell growth at 0.1 uM incubated for 48 hrs by sulforhodamine B assay relative to control; format: functional; conditions: HCT-15, 48 h, read-out: Activity
UO-31 [2] = assay: Growth inhibition of human UO31 cells incubated for 48 hrs by sulforhodamine B assay; format: functional, cell-based; conditions: UO-31, 48 h
UACC-62 [3] = assay: Growth inhibition of human UACC62 cells assessed as cell growth at 0.01 uM incubated for 48 hrs by sulforhodamine B assay relative to control; format: functional; conditions: UACC-62, 48 h, read-out: Activity
SK-OV-3 = assay: Growth inhibition of human SKOV3 cells assessed as cell growth at 100 uM incubated for 48 hrs by sulforhodamine B assay relative to control; format: functional; conditions: SK-OV-3, 48 h, read-out: Activity
RXF 393 [4] = assay: Growth inhibition of human RXF393 cells assessed as cell growth at 0.01 uM incubated for 48 hrs by sulforhodamine B assay relative to control; format: functional; conditions: RXF 393, 48 h, read-out: Activity
NCI/ADR-RES = assay: Growth inhibition of human NCI/ADR-RES cells incubated for 48 hrs by sulforhodamine B assay; format: functional, cell-based
Malme-3M = assay: Growth inhibition of human MALME-3M cells incubated for 48 hrs by sulforhodamine B assay; format: functional, cell-based
LOX IMVI = assay: Growth inhibition of human LOXIMVI cells assessed as cell growth at 100 uM incubated for 48 hrs by sulforhodamine B assay relative to control; format: functional; conditions: read-out: Activity
NCI-H522 = assay: Growth inhibition of human NCI-H522 cells incubated for 48 hrs by sulforhodamine B assay; format: functional, cell-based; conditions: NCI-H522, 48 h
OVCAR-8 = assay: Growth inhibition of human OVCAR8 cells assessed as cell growth at 0.01 uM incubated for 48 hrs by sulforhodamine B assay relative to control; format: functional; conditions: OVCAR-8, 48 h, read-out: Activity
SN12C = assay: Growth inhibition of human SN12C cells assessed as cell growth at 1 uM incubated for 48 hrs by sulforhodamine B assay relative to control; format: functional; conditions: read-out: Activity
HT-29 = assay: Growth inhibition of human HT-29 cells assessed as cell growth at 10 uM incubated for 48 hrs by sulforhodamine B assay relative to control; format: functional; conditions: HT-29, 48 h, read-out: Activity
UACC-257 = assay: Growth inhibition of human UACC257 cells assessed as cell growth at 100 uM incubated for 48 hrs by sulforhodamine B assay relative to control; format: functional; conditions: UACC-257, 48 h, read-out: Activity
K562 [5] = assay: Growth inhibition of human K562 cells assessed as cell growth at 100 uM incubated for 48 hrs by sulforhodamine B assay relative to control; format: functional; conditions: K562, 48 h, read-out: Activity
SK-MEL-28 = assay: Growth inhibition of human SK-MEL-28 cells assessed as cell growth at 0.01 uM incubated for 48 hrs by sulforhodamine B assay relative to control; format: functional; conditions: SK-MEL-28, 48 h, read-out: Activity
UO-31 [6] = assay: Growth inhibition of human UO31 cells assessed as cell growth at 1 uM incubated for 48 hrs by sulforhodamine B assay relative to control; format: functional; conditions: UO-31, 48 h, read-out: Activity
ACHN = assay: Growth inhibition of human ACHN cells incubated for 48 hrs by sulforhodamine B assay; format: functional, cell-based
MDA-MB-231 = assay: Growth inhibition of human MDA-MB-231 cells assessed as cell growth at 1 uM incubated for 48 hrs by sulforhodamine B assay relative to control; format: functional; conditions: MDA-MB-231, 48 h, read-out: Activity
BT-549 = assay: Growth inhibition of human BT549 cells assessed as cell growth at 0.1 uM incubated for 48 hrs by sulforhodamine B assay relative to control; format: functional; conditions: BT-549, 48 h, read-out: Activity
SW-620 = assay: Growth inhibition of human SW620 cells assessed as cell growth at 100 uM incubated for 48 hrs by sulforhodamine B assay relative to control; format: functional; conditions: SW-620, 48 h, read-out: Activity
K562 [7] = assay: Growth inhibition of human K562 cells assessed as cell growth at 0.1 uM incubated for 48 hrs by sulforhodamine B assay relative to control; format: functional; conditions: K562, 48 h, read-out: Activity
RXF 393 [8] = assay: Growth inhibition of human RXF393 cells assessed as cell growth at 100 uM incubated for 48 hrs by sulforhodamine B assay relative to control; format: functional; conditions: RXF 393, 48 h, read-out: Activity
MOLT-4 = assay: Growth inhibition of human MOLT4 cells assessed as cell growth at 0.01 uM incubated for 48 hrs by sulforhodamine B assay relative to control; format: functional; conditions: MOLT-4, 48 h, read-out: Activity
786-0 = assay: Growth inhibition of human 786-0 cells assessed as cell growth at 0.1 uM incubated for 48 hrs by sulforhodamine B assay relative to control; format: functional; conditions: 786-0, 48 h, read-out: Activity
HOP-62 = assay: Growth inhibition of human HOP62 cells assessed as cell growth at 100 uM incubated for 48 hrs by sulforhodamine B assay relative to control; format: functional; conditions: HOP-62, 48 h, read-out: Activity
Hs-578T = assay: Growth inhibition of human Hs578T cells assessed as cell growth at 0.01 uM incubated for 48 hrs by sulforhodamine B assay relative to control; format: functional; conditions: read-out: Activity
UACC-62 [9] = assay: Growth inhibition of human UACC62 cells assessed as cell growth at 0.1 uM incubated for 48 hrs by sulforhodamine B assay relative to control; format: functional; conditions: UACC-62, 48 h, read-out: Activity
NCI-H322M = assay: Growth inhibition of human NCI-H322M cells incubated for 48 hrs by sulforhodamine B assay; format: functional, cell-based
[10] = read-out: LC50 (the source's name)
[11] = read-out: pLC50 (the source's name) (converted)

`O=C(Nc1cccc(-n2cc(-c3ccncc3)c(-c3cc(O)cc(Cl)c3)n2)c1)c1cc(C(F)(F)F)cc(C(F)(F)F)c1` gave an LC50 (RXF 393 [1]) of 24.5 µM, a GI50 (RXF 393 [1]; read-out: GI50) of 1.59 µM and a TGI (RXF 393 [1]; read-out: TGI) of 43.6 µM. For the same compound, the GI50 (RXF 393 [1]; read-out: pGI50 (converted)) was 1.7 µM, the TGI (RXF 393 [1]; read-out: pTGI (converted)) was 4.37 µM and the growth at 0.1 µM (HCT-15) was 90%. For the same compound, the IC50 (UO-31 [2]) was 2.5 µM, the GI50 (UO-31 [2]; read-out: GI50) was 2.5 µM and the CC50 (UO-31 [2]; [10]) was over 100 µM. For the same compound, the TGI (UO-31 [2]; read-out: TGI) was over 100 µM, the GI50 (UO-31 [2]; read-out: pGI50 (converted)) was 2.51 µM and the CC50 (UO-31 [2]; [11]) was over 100 µM. It also gave a TGI (UO-31 [2]; read-out: pTGI (converted)) of over 100 µM, a growth at 0.01 µM (UACC-62 [3]) of 90% and a growth at 100 µM (SK-OV-3) of 30%. The growth at 0.01 µM (RXF 393 [4]) was 96%, the GI50 (NCI/ADR-RES; read-out: GI50) was 4.58 µM and the CC50 (NCI/ADR-RES; [10]) was over 100 µM. For the same compound, the TGI (NCI/ADR-RES; read-out: TGI) was over 100 µM, the GI50 (NCI/ADR-RES; read-out: pGI50 (converted)) was 4.57 µM and the CC50 (NCI/ADR-RES; [11]) was over 100 µM. The TGI (NCI/ADR-RES; read-out: pTGI (converted)) was over 100 µM, the GI50 (Malme-3M; read-out: GI50) was 3.59 µM and the CC50 (Malme-3M; [10]) was over 100 µM. The TGI (Malme-3M; read-out: TGI) was 94.4 µM, the GI50 (Malme-3M; read-out: pGI50 (converted)) was 3.72 µM and the CC50 (Malme-3M; [11]) was over 100 µM. For the same compound, the TGI (Malme-3M; read-out: pTGI (converted)) was 95.5 µM, the growth at 100 µM (LOX IMVI) was -41% and the GI50 (NCI-H522; read-out: GI50) was 1.5 µM. It also gave a CC50 (NCI-H522; [10]) of over 100 µM, a TGI (NCI-H522; read-out: TGI) of 83.7 µM and a GI50 (NCI-H522; read-out: pGI50 (converted)) of 1.58 µM. The CC50 (NCI-H522; [11]) was over 100 µM, the TGI (NCI-H522; read-out: pTGI (converted)) was 8.32 µM and the growth at 0.01 µM (OVCAR-8) was 98%. It also gave a growth at 1 µM (SN12C) of 91%, a growth at 10 µM (HT-29) of 19.7% and a growth at 100 µM (UACC-257) of -10%. It also gave a growth at 100 µM (K562 [5]) of 7%, a growth at 0.01 µM (SK-MEL-28) of 99% and a growth at 1 µM (UO-31 [6]) of 71%. It also gave a GI50 (ACHN; read-out: GI50) of 4.96 µM, a CC50 (ACHN; [10]) of over 100 µM and a TGI (ACHN; read-out: TGI) of over 100 µM. For the same compound, the GI50 (ACHN; read-out: pGI50 (converted)) was 5.01 µM, the CC50 (ACHN; [11]) was over 100 µM and the TGI (ACHN; read-out: pTGI (converted)) was over 100 µM. It also gave a growth at 1 µM (MDA-MB-231) of 70%, a growth at 0.1 µM (BT-549) of 103% and a growth at 100 µM (SW-620) of 13%. It also gave a growth at 0.1 µM (K562 [7]) of 89%, a growth at 100 µM (RXF 393 [8]) of -50% and a growth at 0.01 µM (MOLT-4) of 99%. The growth at 0.1 µM (786-0) was 97%, the growth at 100 µM (HOP-62) was 14% and the growth at 0.01 µM (Hs-578T) was 93%. For the same compound, the growth at 0.1 µM (UACC-62 [9]) was 97%, the GI50 (NCI-H322M; read-out: GI50) was 7.92 µM and the CC50 (NCI-H322M; [10]) was over 100 µM. The TGI (NCI-H322M; read-out: TGI) was over 100 µM, the GI50 (NCI-H322M; read-out: pGI50 (converted)) was 7.94 µM and the CC50 (NCI-H322M; [11]) was over 100 µM. It also gave a TGI (NCI-H322M; read-out: pTGI (converted)) of over 100 µM.
